The source of these data is ChEMBL document CHEMBL1148415, “Effects of C2-alkylation, N-alkylation, and N,N'-dialkylation on the stability and estrogen receptor interaction of (4R,5S)/(4S,5R)-4,5-bis(4-hydroxyphenyl)-2-imidazolines” (J Med Chem, 2004).

Data set [1] is described as follows: Half life at 7.4 pH. The class given is ADME. Conditions: pH 7.4.
Data set [2] in a line: Rate constant at 7.4 pH. Conditions: pH 7.4. The class given is ADME.
In data set [3] the target is T1, Estrogen receptor (Homo sapiens, UniProt P03372).
T1 sequence (P03372 whole entry): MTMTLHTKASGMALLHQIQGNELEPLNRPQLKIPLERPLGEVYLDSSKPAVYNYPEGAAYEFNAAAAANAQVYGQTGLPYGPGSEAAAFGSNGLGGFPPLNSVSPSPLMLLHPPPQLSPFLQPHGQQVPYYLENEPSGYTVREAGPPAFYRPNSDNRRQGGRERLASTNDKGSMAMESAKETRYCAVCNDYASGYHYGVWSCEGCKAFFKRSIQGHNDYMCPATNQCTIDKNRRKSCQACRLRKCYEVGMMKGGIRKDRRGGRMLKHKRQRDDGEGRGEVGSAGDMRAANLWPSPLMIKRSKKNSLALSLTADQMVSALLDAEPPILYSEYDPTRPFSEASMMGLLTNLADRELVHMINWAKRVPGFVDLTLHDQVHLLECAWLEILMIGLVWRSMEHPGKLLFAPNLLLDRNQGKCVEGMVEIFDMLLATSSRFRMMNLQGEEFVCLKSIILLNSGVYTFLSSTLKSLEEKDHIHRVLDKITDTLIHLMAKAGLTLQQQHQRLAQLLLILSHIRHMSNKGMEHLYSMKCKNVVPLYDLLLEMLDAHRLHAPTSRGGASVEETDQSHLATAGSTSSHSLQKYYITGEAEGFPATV
Nature of the data set: Concentration required to activate luciferase expression in MCF-7-2a cells. The class given is functional, cell-based.

Data set [4] is described as follows: Rate constant at 7.4 pH; No decomposition was observed within 55h. Format: ADME. To be noted: pH 7.4, 55 h.
Data set [5] is described as follows: Half life at 7.4 pH; No decomposition was observed within 55h. Conditions: pH 7.4, 55 h. The class given is ADME.

`Oc1ccc([C@H]2NC=N[C@H]2c2ccc(O)cc2Cl)c(Cl)c1`: the half-life in data set [1] was 5.94 h. In data set [2], this compound came in with a k obs of 0.15 h⁻¹. `CCCN1C=N[C@@H](c2ccc(O)cc2Cl)[C@H]1c1ccc(O)cc1Cl`: the EC50 in data set [3] is 150 nM. On the same count and under the same terms, the same measure for `N[C@H](c1ccc(O)cc1Cl)[C@@H](N)c1ccc(O)cc1Cl`: 1500 nM. Compound `CCN1C=N[C@@H](c2ccc(O)cc2Cl)[C@H]1c1ccc(O)cc1Cl` gave a half-life in data set [1] of 154 h. In data set [2], this compound had a k obs of 0.004 h⁻¹. The same compound yielded an EC50 in data set [3] of 15 nM.

The compound `COc1ccc([C@H]2N=CN[C@H]2c2ccc(OC)cc2Cl)c(Cl)c1` had a half-life in data set [1] of 4.58 h. In data set [2], this compound registered a k obs of 0.198 h⁻¹. In the same order, the values of `Oc1ccc([C@H]2N=CN[C@H]2c2ccc(O)cc2)cc1` are 6.36 h and 0.122 h⁻¹. As to `OCCC1=N[C@H](c2ccc(O)cc2Cl)[C@H](c2ccc(O)cc2Cl)N1`, the k obs result in data set [4] is on record as “Stable”. Also, the T1/2 result in data set [5] is “Stable”. `N[C@H](c1ccc(O)cc1Cl)[C@@H](NC=O)c1ccc(O)cc1Cl` returned an EC50 in data set [3] of 3000 nM. Consider `CCN1C=[N+](CC)[C@@H](c2ccc(O)cc2Cl)[C@H]1c1ccc(O)cc1Cl`, for which, in data set [4], the k obs entry is reported as “Stable”. In addition, the T1/2 result in data set [5] is “Stable”. It took 500 nM to reach a half-maximal effect in data set [3] (EC50).

In data set [3], `CN1C=[N+](C)[C@@H](c2ccc(O)cc2Cl)[C@H]1c1ccc(O)cc1Cl` came in with an EC50 of 780 nM. In data set [3], `CC1=N[C@@H](c2c(Cl)cc(O)cc2Cl)[C@@H](c2ccc(O)cc2Cl)N1` came in with a concentration giving a half-maximal response (EC50) of 5000 nM. For `CN1C=N[C@@H](c2ccc(O)cc2Cl)[C@H]1c1ccc(O)cc1Cl`, in data set [3], the midpoint of the response, the EC50, lay at 300 nM.

In data set [1], `Oc1ccc([C@H]2N=CN[C@H]2c2c(Cl)cc(O)cc2Cl)c(Cl)c1` gave a half-life of 13.4 h. The k obs in data set [2] turned out to be 0.052 h⁻¹. In data set [3], the midpoint of the response, the EC50, lay at 65 nM.
